In US20260284165A1, “COMPOSITIONS AND METHODS FOR TREATMENT OR P[…] OF CANCER INCLUDING TRIPLE NEGATIVE BREAST CANCER AND/OR LUNG CANCER” (The Medical College of Wisconsin, Inc., priority 2023, published 2026):

These sequences were tested on splenocytes (assay: IFNγ ELISPOT in splenocytes, cyclin E2 and KIF15 epitopes). Conditions: after four immunizations.
Assay type: cell-based, mice
Text: We developed both cyclin E2 and KIF15 MHC-II vaccines using the multi-scoring system to identify immunogenic epitopes (Table 4). […] This multi-antigen preventive vaccine should also help overcome antigen-negative variant escape that has been observed with single antigen vaccines. Currently, a mRNA vaccine is also in development that contains the epitopes of TOP2A, cyclin E2 or KIF15 and will test its efficacy and immune response in relevant preclinical animal models.

Row | Sequence | type I immunity (IFNγ ELISPOT)
1 | SHNLRGVIPRSFEYL [p129] | elicited type I immunity
2 | VVKSTSPVKLKTFKK [p334] | elicited type I immunity
3 | AAALCHFTSIEVVKK [p298] | elicited type I immunity
